Results on three compounds are retold here after patent US11845741B2, “Pilocarpine ionic liquids for treatment of glaucoma” (VIRGINIA COMMONWEALTH UNIVERSITY INTELLECTUAL PROPERTY …, priority 2020, dated 2023).

Entries after “also recorded” stand apart in the source; their conditions may differ. Counter-ions that a name gives are not always drawn.

Series [1] is described as follows: Stability test: pH of aqueous solutions over 24 h. It is filed as physicochemical. To be noted: for pH of freshly prepared solution: 0 h. As to the method:
(§1) Stability test. Fresh water solutions of Pilo, PiloHCl, and [Pilo-OEG]Cl (5 mM) were prepared and their pH at 0, 0.75, 4, 8, and 24 h was measured with a pH meter ([…]). The samples at 0 and 24 h were further analyzed with LC-MS/MS using a Surveyor Plus HPLC System and triple stage quadrupole (TSQ) Quantum Ultra Mass Spectrometer (Thermo Fisher Scientific, USA) equipped with an auto-sampler and electrospray ionization (ESI) source. Separation was carried out on an Hypersil Gold column (150 mm×2.1 mm, […], Thermo) maintained at 25° C. The mobile phase consisted of 0.1% (v/v) formic acid water phase (A) and methanol phase (B). The gradient elution program was as follows: 95% of A at 0-5 min, and back to 95% of A at 23.1 min, re-conditioning of the column for 8 min. The flow rate was 0.2 mL/min A capillary temperature of 350° C., spray voltage of 4500 V, sheath gas of 30 arb, and auxiliary gas of 10 arb were maintained as the optimal instrument conditions. Unit resolution was used for Q1 (FWHM 0.7). Nitrogen was used as both sheath gas and auxiliary gas.

A short description of series [2]: Ex vivo corneal permeation, Franz diffusion cell. It is filed as in vitro ADME. To be noted: rabbit cornea; for amount permeated through the cornea within 4 h: 200 μL of 27 mM in donor chamber. As to the method: Ex vivo corneal permeation studies. Corneas were extracted from fresh rabbit eyes and mounted immediately in a Franz diffusion cell system with the epithelial surface facing the donor chamber. In each test, Pilo, PiloHCl, or [Pilo-OEG]Cl (200 μL, 27 mM) was loaded to the donor chamber. The receiver chamber was filled with 5 mL of PBS. At pre-determined time points up to 4 h, an aliquot of 1 mL from the receiver chamber was collected via syringe and analyzed with UV-Vis spectrophotometer (U-3010, Hitachi). Fresh PBS (1 mL) was added to the receiver chamber following each sampling. All the experiments were conducted in triplicate. The permeability coefficient, P, was then determined based on the following equation: [formula] where dQ/dt is the steady-state slope of a cumulative flux curve (in this study, the data in 1 h is selected for dQ/dt calculation), C is drug concentration in the donor chamber, and A is the effective cross-sectional area (0.629 cm^2) available for diffusion.^22

The conditions of series [3]: literature value; cited from earlier work.
Series [4] concerns HCE-2 human corneal epithelial cells. The experiment in a line: Cytotoxicity assessment, WST-1 assay. The format is cell-based. To be noted: HCE-2 cells, 24 h, 1 mM to 50 mM. On the procedure:
(§2) Cytotoxicity assessment. HCE-2 human corneal epithelial cells were seeded in a 96-well plate at a density of 1×10^4 cell/well. After attachment, the cells were incubated with various concentrations of Pilo, PiloHCl and [Pilo-OEG]Cl for 24 h and cell viability was determined by using WST-1 assay. The medium for HCE-2 (ATCC CRL-11135, epithelial Adenovirus 12-SV40 hybrid transformed) was Keratinocyte-serum free medium supplemented with 0.05 mg/mL of bovine pituitary extract (BPE), 5 ng/mL of epidermal growth factor (EGF), 500 ng/mL of hydrocortisone and 0.005 mg/mL of insulin. The cytotoxicity of Pilo and [Pilo-OEG]Cl to NIH3T3 fibroblast cells was also tested.
A general note: Formazan colour is commonly taken as a measure of viable cells.

Series [5] is described as follows: Stability test: LC-MS/MS analysis of aqueous solutions at 0 and 24 h. The format is physicochemical. The following applies: water solution, 5 mM. On the procedure:
as §1

The subject of series [6] is intraocular pressure (IOP). Description: In vivo IOP-lowering efficacy assessment. Also noted: species or system normotensive adult Brown Norway female rats. To be noted: for IOP reduction after second dose: second topical dose applied 4 hours after the first; for average IOP reduction after first dose: topical 2×5 μL, 82 mM pilocarpine equivalent, 45 min post-administration, n=4; for time of highest IOP reduction post-administration: topical instillation. On the procedure: In vivo efficacy assessment. Normotensive adult Brown Norway female rats (Charles River Laboratories), 8 months old, were used in this work. The rats were given free access to food and water, 12 hours light and dark cycle in a temperature-controlled room (18-24° C.). The procedures conducted were approval by Virginia Commonwealth University IACUC. Rats were randomly grouped to two groups of four (n=4). The right eye of each rat was instilled with PiloHCl or [Pilo-OEG]Cl PBS solution (2×5 μL, 82 mM pilocarpine equivalent), one dose at 8:00 am and the second dose at 12:00 pm. The IOPs of both eyes were measured at 8:00 am (before dosing), 8:45 am, 12:00 pm (before the second dosing), 12:45 pm, and 16:00 pm using Icare TONOLAB tonometer TV02.

The nature of series [7]: Cytotoxicity assessment, WST-1 assay. The format is cell-based, human. The following applies: human, HCE-2 human corneal epithelial cells; HCE-2 cells, 24 h incubation, WST-1. On the procedure:
as §2

Usually pKa stands for the negative logarithm of the acid dissociation constant. Take `CC[C@@H]1C(=O)OC[C@@H]1Cc1cncn1C` [Pilo, Pilocarpine]: the “pH of freshly prepared solution” value in series [1] (water solution, 5 mM) is on record as 9.2. The “pH of solution at 8 h” value in series [1] (water solution, 5 mM, 8 h) is 8.7. The “pH of solution at 24 h” value in series [1] (water solution, 5 mM, 24 h) was determined as 8.2. In addition, the pKa in series [1] (water solution, calculated/estimated from pH at 0 h, 5 mM in water, read-out: dissociation constant (pKa)) was 7.28. Also, the “amount permeated through the cornea within 4 h” value in series [2] (4 h) is listed as 27.8±14.7%. In series [2] (dQ/dt from data in 1 h), this compound came in with a permeability coefficient of 6.6 ×10⁻⁶ cm/s. Moreover, in series [3], the “pKa reported in the Merck Index” value is listed as 7.15. Moreover, the cytotoxicity / cytocompatibility result in series [4] is “cytocompatible”. Besides, the “degradation products formed in solution (LC-MS)” value (shortened to “degradation products formed”) in series [5] is “isopilocarpine formed (eluted at 2.02 min, m/z=209.06) and further hydrolyzed into acids”.
As a reminder, the IC50 is the midpoint of a concentration-inhibition curve. A higher IC50 goes with weaker potency in that assay. Take `CC[C@@H]1C(=O)OC[C@@H]1Cc1cncn1C` [PiloHCl, pilocarpine hydrochloride]: the “dissociation constant (pKa)” value in series [1] (calculated/estimated from pH at 0 h, 5 mM in water, hydrochloride) was 8.34. Besides, the “pH of freshly prepared solution” value in series [1] (water solution, 5 mM, hydrochloride) is recorded as 5.3. Also, in series [1] (water solution, 5 mM, 24 h), the “pH stability of aqueous solution within 24 h” value was “remain relatively stable”. The “amount permeated through the cornea within 4 h” value in series [2] (4 h, hydrochloride) came to 8.1±1.8%. In series [2] (dQ/dt from data in 1 h, hydrochloride), this compound registered a permeability coefficient of 1.5 ×10⁻⁶ cm/s. In series [6], the “IOP reduction after second dose” value is reported as approximately 1 mmHg, the “average IOP reduction after first dose” value worked out at 1.25 mmHg and the “time of highest IOP reduction post-administration” value was determined as 45 min. This compound also displayed an IC50 at 24 h in series [7] of 25 mM. Also, the cytotoxicity / cytocompatibility result in series [4] (hydrochloride) is “strong dose-dependent cytotoxicity”. Besides, the “degradation products formed” value in series [5] (hydrochloride) is reported as “Isopilocarpine also formed”.
Turning to `CC[C@@H]1C(=O)OC[C@@H]1Cc1c[n+](CCOCCOCCO)cn1C.[Cl-]` [[Pilo-OEG]Cl], in series [1] (water solution, 5 mM), the “pH of freshly prepared solution” value is 7.3. Further, in series [1] (water solution, 5 mM, 24 h), the “pH stability of aqueous solution within 24 h” value is on record as “remain relatively stable”. In series [2], the “permeability coefficient, fold higher than Pilo” value stood at 1 fold and the “permeability coefficient, fold higher than PiloHCl” value was 8 fold. Moreover, in series [2] (4 h), the “amount permeated through the cornea within 4 h” value is recorded as 51.6±8.1% and the “amount permeated, fold higher than PiloHCl” value is recorded as 5 fold. In addition, the Papp at 1 h, 27 mM in series [2] (rabbit, dQ/dt from data in 1 h, read-out: permeability coefficient) was 13 ×10⁻⁶ cm/s. Also, the “IOP reduction, fold versus PiloHCl” value in series [6] (first dose, statistical significance not established) is on record as 2 fold. Besides, in series [6], the “IOP reduction after second dose” value is on record as 2.625 mmHg, the “average IOP reduction after first dose” value is on record as 2.75 mmHg and the “time of highest IOP reduction post-administration” value is on record as 45 min. In series [4], the cytotoxicity / cytocompatibility result is reported as “did not show apparent toxicity; also recorded: cytocompatible”. Further, in series [5], the “degradation products formed” value was “neither isopilocarpine or pilocarpine and isopilocarpine acids formed”.
